Measured values from patent publication US9765075B2, “Substituted bridged urea analogs as sirtuin modulators” (GLAXOSMITHKLINE LLC, priority 2013, dated 2017).
Numbering of substitutions follows the chain as printed. Where a name gives a salt, the structure may show the parent alone.

Tests used:
Assay in all cases: SIRT1 inhibition assay, OAcADPr mass spectrometry
Assay type in all cases: biochemical
full-length hSIRT1 T219A = target: T1, full-length hSIRT1 T219A (Homo sapiens, UniProt Q96EB6, T219A)
T1 construct: The following point mutants of full-length hSIRT1 were generated; His6 (C); made in house
T1 sequence (Q96EB6 1-747 T219A): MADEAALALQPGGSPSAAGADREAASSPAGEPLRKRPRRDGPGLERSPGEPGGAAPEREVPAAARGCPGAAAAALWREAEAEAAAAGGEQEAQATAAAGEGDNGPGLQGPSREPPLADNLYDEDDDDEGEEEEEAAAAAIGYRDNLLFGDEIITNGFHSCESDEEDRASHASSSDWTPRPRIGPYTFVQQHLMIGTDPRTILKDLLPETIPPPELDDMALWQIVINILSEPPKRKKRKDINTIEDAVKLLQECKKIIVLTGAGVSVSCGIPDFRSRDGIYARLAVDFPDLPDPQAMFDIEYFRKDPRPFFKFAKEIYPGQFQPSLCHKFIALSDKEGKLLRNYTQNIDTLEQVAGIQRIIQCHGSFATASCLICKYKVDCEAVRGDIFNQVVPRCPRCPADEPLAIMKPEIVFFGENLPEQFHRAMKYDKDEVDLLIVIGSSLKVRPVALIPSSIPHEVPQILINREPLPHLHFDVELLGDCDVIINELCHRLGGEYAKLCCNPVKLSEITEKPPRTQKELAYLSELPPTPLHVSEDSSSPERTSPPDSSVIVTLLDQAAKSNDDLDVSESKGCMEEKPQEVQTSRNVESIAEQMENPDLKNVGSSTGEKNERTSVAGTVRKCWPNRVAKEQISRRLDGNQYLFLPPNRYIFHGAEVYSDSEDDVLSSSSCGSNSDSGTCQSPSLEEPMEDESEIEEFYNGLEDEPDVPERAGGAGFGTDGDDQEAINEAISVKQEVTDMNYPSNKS
Protocol: (§1) SIRT1 activation and inhibition assays were run in reaction buffer with 0.05% BSA at 25° C. and analyzed using the OAcADPr assay. Enzyme and compound were pre-incubated for 20 minutes before addition of substrates.

full-length hSIRT1 N226A = target: T2, full-length hSIRT1 N226A (Homo sapiens, UniProt Q96EB6, N226A)
T2 construct: The following point mutants of full-length hSIRT1 were generated; His6 (C); made in house
T2 sequence (Q96EB6 1-747 N226A): T1 sequence (Q96EB6 1-747 T219A) with A219T, N226A
Protocol: as §1

full-length hSIRT1 Q222A = target: T3, full-length hSIRT1 Q222A (Homo sapiens, UniProt Q96EB6, Q222A)
T3 construct: The following point mutants of full-length hSIRT1 were generated; made in house
T3 sequence (Q96EB6 1-747 Q222A): T1 sequence (Q96EB6 1-747 T219A) with A219T, Q222A
Protocol: as §1

CCCC[C@H](NC(=O)[C@H](CC(C)C)NC(=O)[C@H](CCCCNC(=O)C(F)(F)F)NC(=O)[C@H](CCCCN)NC(=O)[C@H](Cc1c[nH]cn1)NC(=O)[C@H](CCCNC(=N)N)NC(C)=O)C(=O)N[C@@H](Cc1ccccc1)C(N)=O [TFA-p53 7-mer, Ac-RHK-K^TFA-L-Nle-F-NH2]
IC50 (full-length hSIRT1 T219A): 0.49 ± 0.02 µM
IC50 (full-length hSIRT1 N226A): 0.35 ± 0.04 µM
IC50 (full-length hSIRT1 Q222A): 0.63 ± 0.05 µM
